Measured values as given in US8076352B2, “Administration of carboline derivatives useful in the treatment of cancer and other diseases” (PTC Therapeutics, Inc., priority 2004, dated 2011).

What follows are molecules tested on hypoxia-inducible endogenous VEGF expression in HeLa cells (assay: Hypoxia-inducible endogenous VEGF expression, VEGF ELISA of conditioned media (dose-response EC50)). Details: HeLa cells under hypoxic conditions.
Type: cell-based
In short: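 HeLa cells were cultured 24-48 h under hypoxia (1% O2, 5% CO2, balance N2) with or without compound. Conditioned-media VEGF protein was measured by ELISA against a standard curve. EC50 and CC50 come from percentage-inhibition curves over, e.g., seven concentrations, with maximal inhibition set at 100%.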

SMILES | EC50
CCOC(=O)N1CCc2c([nH]c3ccc(Br)cc23)C1c1ccc([N+](=O)O)cc1 (stereo not drawn) [Compound 59] | 8 to 40 nM

Same assay, conditions: Homo sapiens, HeLa cells under hypoxic conditions

SMILES | EC50
Oc1cccc(C2NCCc3c2[nH]c2ccc(Cl)cc32)c1 (stereo not drawn) [Compound 291] | > 1000 nM
CC(=O)N1CCc2c([nH]c3ccc(Br)cc23)C1c1ccc(C)cc1 (stereo not drawn) [Compound 131] | 40 to 200 nM
COC(=O)N1CCc2c([nH]c3ccc(Cl)cc23)C1c1cccc(Cl)c1 (stereo not drawn) [Compound 104] | 8 to 40 nM
Clc1ccc2[nH]c3c(c2c1)CCNC3C1CCCCC1 (stereo not drawn) [Compound 287] | > 1000 nM
Clc1ccc2[nH]c3c(c2c1)CCNC3c1ccc(Cl)c(Cl)c1 (stereo not drawn) [Compound 170] | 40 to 200 nM
CCOC(=O)N1CCc2c([nH]c3ccc(Cl)cc23)C1c1cccc([N+](=O)[O-])c1 (stereo not drawn) [Compound 139] | 40 to 200 nM
O=C(OCCCl)N1CCc2c([nH]c3ccc(Cl)cc23)C1c1ccc(F)c(F)c1 (stereo not drawn) [Compound 35] | < 8 nM
COc1ccc(C2c3[nH]c4ccc(Cl)cc4c3CCN2C(=O)NCc2ccccc2)cc1 (stereo not drawn) [Compound 188] | 200 to 1000 nM
CC(C)OC(=O)N1CCc2c([nH]c3ccc(Cl)cc23)C1c1ccc(C(F)(F)F)cc1 (stereo not drawn) [Compound 26] | < 8 nM
CC(C)OC(=O)N1CCc2c([nH]c3ccc(Cl)cc23)C1c1cccc(Br)c1 (stereo not drawn) [Compound 95] | 8 to 40 nM
CCNC(=O)N1CCc2c([nH]c3ccc(Cl)cc23)C1c1ccc(OC)cc1 (stereo not drawn) [Compound 172] | 200 to 1000 nM
CCSC(=S)N1CCc2c([nH]c3ccc(Cl)cc23)C1c1ccc(OC)cc1 (stereo not drawn) [Compound 383] | < 8 nM
CCCC(=O)N1CCc2c([nH]c3ccc(Cl)cc23)C1c1ccc(OC)c(OC)c1 (stereo not drawn) [Compound 144] | 40 to 200 nM
COCCOCC(=O)N1CCc2c([nH]c3ccc(Br)cc23)C1c1cccc(Cl)c1 (stereo not drawn) [Compound 259] | > 1000 nM
CC(C)OC(=O)N1CCc2c([nH]c3ccc(Cl)cc23)C1c1ccc([N+](=O)[O-])cc1 (stereo not drawn) [Compound 56] | 8 to 40 nM
COc1ccc(C2c3[nH]c4ccc(Cl)cc4c3CCN2C(=O)N2CCCC2)cc1 (stereo not drawn) [Compound 333] | 200 to 1000 nM
O=[N+]([O-])c1cccc(C2NCCc3c2[nH]c2ccc(Cl)cc32)c1 (stereo not drawn) [Compound 239] | > 1000 nM
CCOC(=O)N1CCc2c([nH]c3ccc(Br)cc23)C1c1ccc(OC)cc1 (stereo not drawn) [Compound 112] | < 8 nM
CCOC(=O)N1CCc2c([nH]c3ccc(Br)cc23)C1c1cccc(F)c1F (stereo not drawn) [Compound 29] | < 8 nM
O=c1c(C2NCCc3c2[nH]c2ccc(Cl)cc32)coc2ccccc12 (stereo not drawn) [Compound 234] | > 1000 nM
CCOC(=O)N1CCc2c([nH]c3ccc(Cl)cc23)C1c1ccc2c(c1)OCO2 (stereo not drawn) [Compound 113] | 8 to 40 nM
Fc1ccc(C2NCCc3c2[nH]c2ccc(Cl)cc32)cc1F (stereo not drawn) [Compound 215] | 200 to 1000 nM
Fc1cc(F)cc(C2NCCc3c2[nH]c2ccc(Cl)cc32)c1 (stereo not drawn) [Compound 173] | 200 to 1000 nM
O=C(OCCCl)N1CCc2c([nH]c3ccc(Cl)cc23)C1c1ccccc1F (stereo not drawn) [Compound 103] | 8 to 40 nM
Fc1ccc(F)c(C2NCCc3c2[nH]c2ccc(Cl)cc32)c1 (stereo not drawn) [Compound 194] | 200 to 1000 nM
Cc1ccc(C2NCCc3c2[nH]c2ccc(F)cc32)cc1 (stereo not drawn) [Compound 255] | > 1000 nM
COC(=O)N1CCc2c([nH]c3ccc(Cl)cc23)C1c1ccc([N+](=O)[O-])cc1 (stereo not drawn) [Compound 111] | 8 to 40 nM

Same assay, conditions: Homo sapiens, HeLa cells, hypoxic conditions (1% O2)

SMILES | EC50
CCOC(=O)N1CCc2c([nH]c3ccc(Cl)cc23)C1c1ccc(C(=O)NCCCn2ccnc2)cc1 (stereo not drawn) [Compound 533] | 200 to 1000 nM
O=C(Oc1ccc(F)cc1)N1CCc2c([nH]c3ccc(Cl)cc23)C1c1ccc(OCCCCN2CCOCC2)cc1 (stereo not drawn) [Compound 738] | < 8 nM
COCCOCCOc1ccc(C2c3[nH]c4ccc(Cl)cc4c3CCN2C(=O)Oc2ccc(Br)cc2)cc1 (stereo not drawn) [Compound 680] | < 8 nM

Same assay, conditions: Homo sapiens, HeLa cells, hypoxic conditions (1% O2, 5% CO2)

SMILES | EC50
COc1ccc(OC(=O)N2CCc3c([nH]c4ccc(Cl)cc34)C2c2ccc(OCCCn3cncn3)cc2)cc1 (stereo not drawn) [Compound 888] | < 8 nM
O=C(Oc1ccc(Cl)cc1)N1CCc2c([nH]c3ccc(Cl)cc23)C1c1ccc(OCCCN2CCOCC2)cc1 (stereo not drawn) [Compound 894] | < 8 nM
